Among the data in paper PMC6171417, “Carbonic anhydrase inhibition with a series of novel benzenesulfonamide-triazole conjugates” (Journal of Enzyme Inhibition and Medicinal Chemistry, 2018) are inhibition values, retold here.

Common to all, as to experiment: cells
Holding throughout (parameters): species or system NCI human tumour cell line panel; NCI one-dose anti-proliferative screen, human tumour cell line panel, growth inhibition percent (GI%)

One assay concerns DU-145. To be noted: Homo sapiens, DU-145; growth inhibition (GI%), single dose.
A further assay relates to 786-0. To be noted: Homo sapiens, 786-0; growth inhibition (GI%), single dose.
Another assay concerns RXF 393. Particulars: Homo sapiens, RXF 393; growth inhibition (GI%), single dose.
For another assay, the system named is NCI-H460. Particulars: Homo sapiens, NCI-H460; growth inhibition (GI%), single dose.
For another assay, the system named is OVCAR-5. Particulars: Homo sapiens, OVCAR-5; growth inhibition (GI%), single dose.
A further assay has as its system SK-MEL-28. To be noted: Homo sapiens, SK-MEL-28; growth inhibition (GI%), single dose.

Take `N#Cc1nnn(-c2ccc(S(N)(=O)=O)cc2)c1/N=C/c1ccc(Cl)cc1` [compound 9, 9]: the inhibition (usually the relative decrease from the control value, in per cent) at 10 µM is 1% in the assay with DU-145 and 6.1% in the assay on 786-0. With `N#Cc1c(-c2ccc(Cl)cc2)nc2c(nnn2-c2ccc(S(N)(=O)=O)cc2)c1N` [compound 16, 4-(7-amino-5-(4-chlorophenyl)-6-cyano-3H-[1,2,3]triazolo[4,5-b]pyridin-3-yl)benzenesulfonamide], the inhibition at 10 µM with RXF 393 was 17.8%. Turning to `CN(C)c1ccc(-c2nc3c(nnn3-c3ccc(S(N)(=O)=O)cc3)c(N)c2C#N)cc1` [compound 17, 4-(7-amino-6-cyano-5-(4-(dimethylamino)phenyl)-3H-[1,2,3]triazolo[4,5-b]pyridin-3-yl)benzenesulfonamide], the figures for the inhibition at 10 µM in the assay with NCI-H460 and in the assay on OVCAR-5 were 0.9% and 3.4%, respectively.

Take `CCn1c(=S)[nH]c2c(nnn2-c2ccc(S(N)(=O)=O)cc2)c1=N` [compound 20, 4-(6-ethyl-7-imino-5-thioxo-4,5,6,7-tetrahydro-3H-[1,2,3]triazolo[4,5-d]pyrimidin-3-yl)benzenesulfonamide]: the inhibition at 10 µM in the assay with SK-MEL-28 turned out to be 0%.
